“And” between values parts separate entries of the source, which are not always exact repeats. Equal entries are not always repeated.
What was measured:
[1] = test system: SARS-CoV-2 (B.1) in Huh7 cells; assay: Anti-SARS-CoV-2 activity in Huh7 cells (viral yield by qRT-PCR); format: cell-based; conditions: B.1, MOI 0.05, 48 h
[2] = Tissue distribution study in rats; format: in vivo, Sprague Dawley rats; conditions: rat, oral 100 mg/kg, individual animals, 100 mg/kg
Protocol: Three rats in each group were anesthetized at 1-, 4-, and 24-hours post-dosing. Blood samples were collected into the heparinized tubes which containing PhosSTOP and DTNB and centrifuged. Tissue samples, including liver, kidney, and lung were harvested after perfusion with saline and immediately homogenized for further analysis as previously described ([64]). […] For RMP and RTP determination, 50 μL of plasma or homogenate was immediately added to 150 μL of 2% formic acid and 5 μL of 10 μM ^13C,^15N-adenosine triphosphate (ATP) aqueous solution, then vortexed thoroughly and centrifuged at 4°C. Supernatant in a volume of 180 μL was mixed with an equivalent volume of water for solid-phase extraction (SPE) with a weak anion exchange plate (Waters Oasis WAX μElution plate). Finally, the eluate was gently evaporated to dryness under a gentle stream of air, and the residue was reconstituted with 100 μL H2O for analysis on a Waters Positive Pressure-96 processor.

[3] = test system: SARS-CoV-2 replicon system (pBAC-SARS-CoV-2-Replicon-Luc); assay: microbe, parasite or virus in culture; format: cell-based
[4] = Permeability and efflux ratio in Caco-2 cells; format: in vitro ADME; conditions: human
Excerpt: ATV019, and ATV020 in Caco-2 cells.
Compound Caco-2 AB/BA (Papp (10-6 cm/s)) a Efflux ratio

[5] = test system: SARS-CoV-2 (Beta, B.1.351); assay: microbe, parasite or virus in culture; format: cell-based; conditions: for % Inhibition: beta
SARS-CoV-2 (B.1) = assay: Anti-SARS-CoV-2 activity in Vero E6 cells (viral yield by qRT-PCR); format: cell-based; conditions: replicates, sheet Fig.S3

With `CC(C)C(=O)OC[C@H]1O[C@@](C#N)(c2ccc3c(N)ncnn23)[C@H](O)[C@@H]1O` [ATV006] the EC50 ([1]; Severe acute respiratory syndrome coronavirus 2, Huh-7, read-out: EC50 (Confidence 95%) in Huh7 cells) was 1630 nM, the EC90 ([1]; Severe acute respiratory syndrome coronavirus 2, Huh-7, read-out: EC90 (Confidence 95%) in Huh7 cells) was 1960 nM and the “Cmax, GS-441525 in brain” value ([2]; 1h) was 0.717 nmol/kg and 1.164 nmol/kg and 1.176 nmol/kg. The “Cmax, GS-441525 in kidney” value ([2]; 1h) was 220.56 nmol/kg and 166.84 nmol/kg and 182.64 nmol/kg, the “Cmax, GS-441525 in liver” value ([2]; 1h) was 56.04 nmol/kg and 36.188 nmol/kg and 53.92 nmol/kg and the “Cmax, GS-441525 in lung” value ([2]; 1h) was 49 nmol/kg and 29.492 nmol/kg and 44.72 nmol/kg. The “Cmax, RTP in kidney” value ([2]; 1h) was 0.0784 nmol/kg and 0 nmol/kg and 0.0835 nmol/kg, the “Cmax, RTP in liver” value ([2]; 1h) was 0.279 nmol/kg and 1.085 nmol/kg and 1.739 nmol/kg and the “Cmax, RTP in lung” value ([2]; 1h) was 0.167 nmol/kg and 0.107 nmol/kg and 0.1 nmol/kg. The “Cmax, GS-441525 in brain” value ([2]; 4h) was 0.208 nmol/kg and 0.227 nmol/kg and 0.506 nmol/kg, the “Cmax, GS-441525 in kidney” value ([2]; 4h) was 49.24 nmol/kg and 31.336 nmol/kg and 40.16 nmol/kg and the “Cmax, GS-441525 in liver” value ([2]; 4h) was 21.084 nmol/kg and 14.292 nmol/kg and 18.936 nmol/kg. The “Cmax, GS-441525 in lung” value ([2]; 4h) was 10.048 nmol/kg and 8.088 nmol/kg and 8.604 nmol/kg, the “Cmax, RTP in kidney” value ([2]; 4h) was 0.354 nmol/kg and 0.345 nmol/kg and 0.186 nmol/kg and the “Cmax, RTP in liver” value ([2]; 4h) was 1.765 nmol/kg and 0.82 nmol/kg and 0.878 nmol/kg. For the same molecule, the “Cmax, RTP in lung” value ([2]; 4h) was 0.328 nmol/kg and 0.343 nmol/kg and 0.26 nmol/kg, the “Cmax, GS-441525 in brain” value ([2]; 24h) was 0 nmol/kg (2×) and 0.0506 nmol/kg and the “Cmax, GS-441525 in kidney” value ([2]; 24h) was 0.54 nmol/kg and 7 nmol/kg and 0.459 nmol/kg. The “Cmax, GS-441525 in liver” value ([2]; 24h) was 0.243 nmol/kg and 2.843 nmol/kg and 0.303 nmol/kg, the “Cmax, GS-441525 in lung” value ([2]; 24h) was 0.136 nmol/kg and 1.289 nmol/kg and 0.0964 nmol/kg and the “Cmax, RTP in kidney” value ([2]; 24h) was 0.0664 nmol/kg and 0.068 nmol/kg and 0 nmol/kg. For the same molecule, the “Cmax, RTP in liver” value ([2]; 24h) was 0.325 nmol/kg and 0.223 nmol/kg and 0.759 nmol/kg, the “Cmax, RTP in lung” value ([2]; 24h) was 0.191 nmol/kg and 0.249 nmol/kg and 0 nmol/kg and the “activity in the replicon system in comparison with parent GS-441524” value [3] was “improved the inhibitory activities”. The EC50 ([3]; Severe acute respiratory syndrome coronavirus 2, HEK-293T, 60 h, read-out: EC50 (Confidence 95%), replicon) was 521 nM, the EC90 ([3]; Severe acute respiratory syndrome coronavirus 2, HEK-293T, 60 h, read-out: EC90 (Confidence 95%), replicon) was 3220 nM and the efflux ratio [4] was 1.7. It also gave a Papp A→B ([4]; AB) of 0.51 ×10⁻⁶ cm/s, a Papp B→A ([4]; BA) of 0.87 ×10⁻⁶ cm/s and an EC50 ([5]; Severe acute respiratory syndrome coronavirus 2, Vero C1008, 48 h, read-out: EC50 in Vero E6 cells, SARS-CoV-2 (Beta, B.1.351)) of 1130 nM. For the same molecule, the inhibition at 0.01 µM ([5]; Severe acute respiratory syndrome coronavirus 2, Vero C1008, beta, 0.01 uM, Vero E6, replicates) was 0%, the inhibition at 0.1 µM ([5]; Severe acute respiratory syndrome coronavirus 2, Vero C1008, beta, 0.1 uM, Vero E6, replicates) was 0% and the inhibition at 0.25 µM ([5]; Severe acute respiratory syndrome coronavirus 2, Vero C1008, beta, 0.25 uM, Vero E6, replicates) was 0%. It also gave an inhibition at 0.5 µM ([5]; Severe acute respiratory syndrome coronavirus 2, Vero C1008, beta, 0.5 uM, Vero E6, replicates) of 0%, an inhibition at 1 µM ([5]; Severe acute respiratory syndrome coronavirus 2, Vero C1008, beta, 1 uM, Vero E6, replicates) of 32.1% and an inhibition at 2 µM ([5]; Severe acute respiratory syndrome coronavirus 2, Vero C1008, beta, 2 uM, Vero E6, replicates) of 99.6%. The inhibition at 5 µM ([5]; Severe acute respiratory syndrome coronavirus 2, Vero C1008, beta, 5 uM, Vero E6, replicates) was 99.7%, the inhibition at 10 µM ([5]; Severe acute respiratory syndrome coronavirus 2, Vero C1008, beta, 10 uM, Vero E6, replicates) was 99.9% and the inhibition at 50 µM ([5]; Severe acute respiratory syndrome coronavirus 2, Vero C1008, beta, 50 uM, Vero E6, replicates) was 99.9%. The EC90 ([5]; Severe acute respiratory syndrome coronavirus 2, Vero C1008, read-out: EC90 (Confidence 95%), Vero-E6, Beta B.1.351) was 1360 nM, the “% Inhibition” value ([5]; 1 uM, Vero E6, replicates) was 16.537% and the “% Inhibition” value ([5]; 2 uM, Vero E6, replicates) was 99.486%. For the same molecule, the “% Inhibition” value ([5]; 5 uM, Vero E6, replicates) was 99.5312%, the “% Inhibition” value ([5]; 10 uM, Vero E6, replicates) was 99.9431% and the “% Inhibition” value ([5]; 50 uM, Vero E6, replicates) was 99.9484%. For the same molecule, the “% Inhibition” value (SARS-CoV-2 (B.1); 1 μM) was 3.722%, the “% Inhibition” value (SARS-CoV-2 (B.1); 2 μM) was 87.0049% and the “% Inhibition” value (SARS-CoV-2 (B.1); 5 μM) was 91.6411%. The “% Inhibition” value (SARS-CoV-2 (B.1); 10 μM) was 90.9393%.
